This note sets out measurements from ChEMBL document CHEMBL5212743, “Selectivity Literature for EUbOPEN Chemogenomics Library wave 3” (2023).

pKd: −log10 of the molar value. Bounds are passed on as bounds.

Test [1] concerns the target T1, Mitogen-activated protein kinase kinase kinase 19 (Homo sapiens) (UniProt Q56UN5).
T1 sequence (whole entry): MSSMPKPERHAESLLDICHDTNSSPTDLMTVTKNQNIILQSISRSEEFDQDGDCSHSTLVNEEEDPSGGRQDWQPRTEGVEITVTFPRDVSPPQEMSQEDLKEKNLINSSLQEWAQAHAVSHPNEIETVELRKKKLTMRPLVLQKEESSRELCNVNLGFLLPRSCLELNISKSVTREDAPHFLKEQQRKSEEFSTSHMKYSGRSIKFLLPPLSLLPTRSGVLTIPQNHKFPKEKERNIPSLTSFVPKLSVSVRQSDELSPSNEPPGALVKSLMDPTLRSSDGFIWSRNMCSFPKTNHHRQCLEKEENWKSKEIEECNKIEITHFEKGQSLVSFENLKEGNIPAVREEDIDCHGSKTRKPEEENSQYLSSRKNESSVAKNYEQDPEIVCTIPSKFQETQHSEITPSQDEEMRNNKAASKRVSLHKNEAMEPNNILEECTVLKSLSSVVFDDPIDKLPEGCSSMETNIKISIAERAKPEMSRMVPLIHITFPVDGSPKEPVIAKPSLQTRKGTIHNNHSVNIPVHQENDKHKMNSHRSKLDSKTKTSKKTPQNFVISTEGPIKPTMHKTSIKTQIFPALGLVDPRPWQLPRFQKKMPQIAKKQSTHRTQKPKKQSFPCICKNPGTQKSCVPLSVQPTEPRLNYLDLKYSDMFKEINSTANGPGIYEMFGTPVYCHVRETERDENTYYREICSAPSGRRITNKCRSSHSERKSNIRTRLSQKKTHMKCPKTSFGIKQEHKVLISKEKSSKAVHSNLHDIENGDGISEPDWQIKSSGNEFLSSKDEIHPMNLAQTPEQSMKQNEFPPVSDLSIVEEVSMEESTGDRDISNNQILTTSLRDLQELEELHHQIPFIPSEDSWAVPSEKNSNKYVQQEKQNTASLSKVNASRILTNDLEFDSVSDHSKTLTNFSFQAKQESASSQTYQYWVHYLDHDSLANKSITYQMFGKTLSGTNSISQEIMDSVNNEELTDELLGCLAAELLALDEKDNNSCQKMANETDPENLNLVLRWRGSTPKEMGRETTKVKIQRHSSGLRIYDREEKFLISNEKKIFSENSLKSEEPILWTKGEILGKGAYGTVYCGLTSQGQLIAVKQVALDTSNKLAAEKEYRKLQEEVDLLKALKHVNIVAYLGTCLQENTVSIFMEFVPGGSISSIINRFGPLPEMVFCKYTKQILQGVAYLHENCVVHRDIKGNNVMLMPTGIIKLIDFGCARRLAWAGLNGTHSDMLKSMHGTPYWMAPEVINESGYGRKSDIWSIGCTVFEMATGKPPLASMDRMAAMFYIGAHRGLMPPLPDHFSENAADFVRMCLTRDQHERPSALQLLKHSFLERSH
Kind of test: Selectivity interaction (KinomeScan (DiscoverX)) EUB0000702a MAP3K19. The settings on record: at 1 µM.

In test [2] the target is Serine/threonine-protein kinase ULK1 (Homo sapiens) (UniProt O75385). Kind of test: Selectivity interaction (KinomeScan (DiscoverX)) EUB0000702a ULK1. The settings on record: at 1 µM.
In test [3] the target is Serine/threonine-protein kinase PLK3 (Homo sapiens, UniProt Q9H4B4). Kind of test: Selectivity interaction (KinomeScan (DiscoverX)) EUB0000702a PLK3. The settings on record: at 1 µM.
Test [4] has as its target Serine/threonine-protein kinase 26 (Homo sapiens) (UniProt Q9P289). Kind of test: Selectivity interaction (KinomeScan (DiscoverX)) EUB0000178b STK26. The settings on record: at 1 µM.
Test [5] has as its target Mitogen-activated protein kinase kinase kinase 2 (Homo sapiens) (UniProt Q9Y2U5). Kind of test: Selectivity interaction (KinomeScan (DiscoverX)) EUB0000178b MAP3K2. The settings on record: at 1 µM.
Test [6] concerns the target Tyrosine-protein kinase ABL1 (Homo sapiens, UniProt P00519, T315I). Kind of test: Selectivity interaction (KinomeScan (DiscoverX, competition-binding assay)) EUB0000178b ABL1.
The target of test [7] is Cyclin-dependent kinase 19 (Homo sapiens) (UniProt Q9BWU1). The following applies: at 1 µM.
Test [8] has as its target T2, Homeodomain-interacting protein kinase 4 (Homo sapiens) (UniProt Q8NE63).
T2 sequence (whole entry): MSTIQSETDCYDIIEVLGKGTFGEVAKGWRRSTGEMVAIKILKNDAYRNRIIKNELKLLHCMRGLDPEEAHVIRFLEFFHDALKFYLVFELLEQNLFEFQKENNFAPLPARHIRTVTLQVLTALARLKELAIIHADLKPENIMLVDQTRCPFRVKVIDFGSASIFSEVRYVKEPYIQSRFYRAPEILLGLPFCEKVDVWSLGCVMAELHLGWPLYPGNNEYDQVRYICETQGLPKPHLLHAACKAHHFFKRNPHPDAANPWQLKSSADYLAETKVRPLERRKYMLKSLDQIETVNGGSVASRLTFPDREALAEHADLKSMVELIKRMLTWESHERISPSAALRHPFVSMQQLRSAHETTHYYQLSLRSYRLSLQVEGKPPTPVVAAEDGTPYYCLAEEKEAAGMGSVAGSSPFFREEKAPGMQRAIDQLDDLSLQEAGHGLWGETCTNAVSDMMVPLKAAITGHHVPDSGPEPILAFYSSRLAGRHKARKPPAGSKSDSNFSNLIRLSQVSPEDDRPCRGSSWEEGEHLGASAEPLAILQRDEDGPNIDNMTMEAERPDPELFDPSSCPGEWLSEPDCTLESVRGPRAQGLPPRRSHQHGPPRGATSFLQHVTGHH
The following applies: at 1 µM.

For test [9], the target named is Serine/threonine-protein kinase 10 (Homo sapiens) (UniProt O94804). The settings on record: at 1 µM.
The subject of test [10] is Phosphatidylinositol 4,5-bisphosphate 3-kinase catalytic subunit alpha isoform (Homo sapiens), P42336 [Q546K]. In words: Selectivity interaction (KinomeScan (DiscoverX)) EUB0000305b PIK3CA. The settings on record: CellTiter-Glo assay (Promega, proliferation in ACHN cells): IC50 = […] nM, https://www.sgc-ffm.uni-frankfurt.de/#!specificprobeove, at 100 nM. On the technique in general: In ATP-based viability assays light output follows the ATP content of the culture.

For test [11], the target named is Serine/threonine-protein kinase 17A (Homo sapiens) (UniProt Q9UEE5). Kind of test: Selectivity interaction (KinomeScan (DiscoverX)) EUB0000305b STK17A. The following applies: at 100 nM.
Test [12] concerns the target Serine/threonine-protein kinase Chk1 (Homo sapiens) (UniProt O14757). In words: Selectivity interaction (Kinase panel (University of Dundee)) EUB0000169b CHEK1. The settings on record: at 10 µM.
In test [13] the target is Rho-associated protein kinase 2 (Homo sapiens) (UniProt O75116). In words: Selectivity interaction (Kinase panel (University of Dundee)) EUB0000169b ROCK2. The settings on record: at 10 µM.
Rho-associated protein kinase 2 (Homo sapiens), sequence (O75116 whole entry, looked up): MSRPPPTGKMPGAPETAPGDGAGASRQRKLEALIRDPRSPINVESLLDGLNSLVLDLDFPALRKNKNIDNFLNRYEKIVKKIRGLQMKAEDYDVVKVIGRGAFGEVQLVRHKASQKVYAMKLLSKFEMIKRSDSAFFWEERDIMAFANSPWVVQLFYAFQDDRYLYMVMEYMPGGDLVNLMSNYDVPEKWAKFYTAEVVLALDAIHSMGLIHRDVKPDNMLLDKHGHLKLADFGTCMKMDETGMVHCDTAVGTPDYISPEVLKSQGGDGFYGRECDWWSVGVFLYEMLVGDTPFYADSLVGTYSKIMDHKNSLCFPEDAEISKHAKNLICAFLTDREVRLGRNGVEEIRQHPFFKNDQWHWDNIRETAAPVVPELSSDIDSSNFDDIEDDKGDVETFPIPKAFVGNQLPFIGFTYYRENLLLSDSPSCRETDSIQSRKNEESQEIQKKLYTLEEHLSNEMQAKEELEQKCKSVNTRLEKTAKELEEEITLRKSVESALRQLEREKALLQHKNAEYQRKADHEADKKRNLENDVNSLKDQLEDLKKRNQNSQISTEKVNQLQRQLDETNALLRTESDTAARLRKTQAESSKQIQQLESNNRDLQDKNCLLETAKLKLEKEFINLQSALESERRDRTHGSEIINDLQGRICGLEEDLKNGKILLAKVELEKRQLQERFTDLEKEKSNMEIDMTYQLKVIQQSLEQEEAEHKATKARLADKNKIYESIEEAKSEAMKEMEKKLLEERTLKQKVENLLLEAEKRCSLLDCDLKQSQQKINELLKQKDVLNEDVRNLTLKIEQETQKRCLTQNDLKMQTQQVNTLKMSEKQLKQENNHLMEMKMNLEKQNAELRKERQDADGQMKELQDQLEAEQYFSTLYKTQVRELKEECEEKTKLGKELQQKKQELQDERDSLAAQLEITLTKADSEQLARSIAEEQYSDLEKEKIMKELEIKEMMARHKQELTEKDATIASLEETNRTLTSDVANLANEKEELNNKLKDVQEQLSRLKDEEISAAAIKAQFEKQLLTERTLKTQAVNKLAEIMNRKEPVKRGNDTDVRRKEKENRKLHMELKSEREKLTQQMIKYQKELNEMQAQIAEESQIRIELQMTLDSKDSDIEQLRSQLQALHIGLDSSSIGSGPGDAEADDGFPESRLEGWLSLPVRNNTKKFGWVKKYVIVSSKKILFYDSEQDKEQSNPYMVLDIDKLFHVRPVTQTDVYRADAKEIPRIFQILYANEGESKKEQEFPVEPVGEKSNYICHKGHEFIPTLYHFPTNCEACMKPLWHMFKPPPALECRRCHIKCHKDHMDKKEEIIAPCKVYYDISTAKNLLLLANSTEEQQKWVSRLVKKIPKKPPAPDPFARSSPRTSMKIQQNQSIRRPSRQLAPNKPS

Serine/threonine-protein kinase PLK3, sequence (Q9H4B4 whole entry, looked up): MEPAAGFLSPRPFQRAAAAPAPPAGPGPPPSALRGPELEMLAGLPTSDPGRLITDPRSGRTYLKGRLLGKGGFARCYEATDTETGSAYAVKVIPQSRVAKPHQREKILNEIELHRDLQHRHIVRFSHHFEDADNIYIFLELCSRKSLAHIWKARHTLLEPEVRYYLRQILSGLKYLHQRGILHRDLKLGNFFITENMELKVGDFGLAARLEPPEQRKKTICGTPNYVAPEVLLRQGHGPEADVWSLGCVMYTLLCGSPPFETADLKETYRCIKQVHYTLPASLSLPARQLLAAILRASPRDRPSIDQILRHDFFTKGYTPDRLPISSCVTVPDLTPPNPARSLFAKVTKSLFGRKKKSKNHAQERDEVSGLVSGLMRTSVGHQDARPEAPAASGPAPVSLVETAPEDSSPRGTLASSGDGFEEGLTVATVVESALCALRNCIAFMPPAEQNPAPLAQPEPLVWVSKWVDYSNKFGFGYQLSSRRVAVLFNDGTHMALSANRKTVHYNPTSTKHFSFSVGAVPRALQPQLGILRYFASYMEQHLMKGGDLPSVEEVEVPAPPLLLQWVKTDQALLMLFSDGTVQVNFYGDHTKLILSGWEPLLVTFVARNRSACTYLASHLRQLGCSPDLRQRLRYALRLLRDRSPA
Cyclin-dependent kinase 19 (Homo sapiens), sequence (Q9BWU1 whole entry): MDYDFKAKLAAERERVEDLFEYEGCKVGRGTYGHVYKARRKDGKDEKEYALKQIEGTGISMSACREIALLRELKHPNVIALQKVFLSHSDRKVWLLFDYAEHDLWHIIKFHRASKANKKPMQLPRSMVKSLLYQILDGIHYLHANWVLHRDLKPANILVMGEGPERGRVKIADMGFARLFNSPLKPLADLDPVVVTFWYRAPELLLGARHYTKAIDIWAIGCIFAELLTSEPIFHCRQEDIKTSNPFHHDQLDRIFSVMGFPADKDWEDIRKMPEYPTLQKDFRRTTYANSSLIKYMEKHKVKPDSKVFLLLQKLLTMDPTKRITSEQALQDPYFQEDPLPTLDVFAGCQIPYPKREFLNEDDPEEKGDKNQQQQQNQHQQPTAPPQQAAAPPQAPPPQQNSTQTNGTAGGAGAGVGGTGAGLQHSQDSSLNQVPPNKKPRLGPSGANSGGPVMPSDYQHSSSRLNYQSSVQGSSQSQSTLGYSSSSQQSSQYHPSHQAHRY
Serine/threonine-protein kinase 17A (Homo sapiens), sequence (Q9UEE5 whole entry): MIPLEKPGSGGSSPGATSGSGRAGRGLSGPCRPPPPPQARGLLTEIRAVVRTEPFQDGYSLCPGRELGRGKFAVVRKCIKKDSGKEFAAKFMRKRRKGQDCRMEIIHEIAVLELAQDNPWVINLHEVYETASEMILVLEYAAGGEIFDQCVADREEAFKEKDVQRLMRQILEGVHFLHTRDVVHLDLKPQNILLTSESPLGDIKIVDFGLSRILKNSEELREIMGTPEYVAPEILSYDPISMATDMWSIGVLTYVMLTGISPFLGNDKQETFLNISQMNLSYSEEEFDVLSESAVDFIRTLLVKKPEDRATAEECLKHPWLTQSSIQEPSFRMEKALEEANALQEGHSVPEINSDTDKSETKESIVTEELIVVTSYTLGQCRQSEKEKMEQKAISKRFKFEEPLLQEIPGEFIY
Serine/threonine-protein kinase 26 (Homo sapiens), sequence (Q9P289 2-416 limits assumed): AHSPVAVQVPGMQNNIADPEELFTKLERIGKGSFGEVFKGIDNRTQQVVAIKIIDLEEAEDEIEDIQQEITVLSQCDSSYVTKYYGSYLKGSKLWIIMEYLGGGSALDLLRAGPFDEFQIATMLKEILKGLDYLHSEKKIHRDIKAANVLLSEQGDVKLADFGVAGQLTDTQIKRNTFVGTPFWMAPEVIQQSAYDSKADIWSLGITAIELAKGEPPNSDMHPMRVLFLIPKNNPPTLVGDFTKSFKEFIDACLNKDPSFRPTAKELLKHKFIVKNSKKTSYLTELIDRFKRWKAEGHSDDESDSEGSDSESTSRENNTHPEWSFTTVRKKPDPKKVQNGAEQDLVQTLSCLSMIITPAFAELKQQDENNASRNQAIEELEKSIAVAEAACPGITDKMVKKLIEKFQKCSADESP
Serine/threonine-protein kinase Chk1 (Homo sapiens), sequence (O14757 whole entry): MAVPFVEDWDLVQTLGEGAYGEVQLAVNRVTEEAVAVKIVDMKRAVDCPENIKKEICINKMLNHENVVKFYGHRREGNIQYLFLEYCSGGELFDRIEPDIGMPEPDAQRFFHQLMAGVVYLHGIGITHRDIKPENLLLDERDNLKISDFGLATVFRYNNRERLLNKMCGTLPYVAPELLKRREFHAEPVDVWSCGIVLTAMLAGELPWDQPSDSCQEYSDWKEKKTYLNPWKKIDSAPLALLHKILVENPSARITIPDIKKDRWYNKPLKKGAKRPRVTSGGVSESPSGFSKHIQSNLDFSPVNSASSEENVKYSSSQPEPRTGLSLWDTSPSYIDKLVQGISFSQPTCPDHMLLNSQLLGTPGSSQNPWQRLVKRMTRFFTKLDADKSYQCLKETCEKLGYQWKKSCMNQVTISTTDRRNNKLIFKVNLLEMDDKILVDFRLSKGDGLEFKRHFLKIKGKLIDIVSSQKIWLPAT
Phosphatidylinositol 4,5-bisphosphate 3-kinase catalytic subunit alpha isoform (Homo sapiens), P42336 [Q546K], sequence (P42336 whole entry Q546K, canonical isoform): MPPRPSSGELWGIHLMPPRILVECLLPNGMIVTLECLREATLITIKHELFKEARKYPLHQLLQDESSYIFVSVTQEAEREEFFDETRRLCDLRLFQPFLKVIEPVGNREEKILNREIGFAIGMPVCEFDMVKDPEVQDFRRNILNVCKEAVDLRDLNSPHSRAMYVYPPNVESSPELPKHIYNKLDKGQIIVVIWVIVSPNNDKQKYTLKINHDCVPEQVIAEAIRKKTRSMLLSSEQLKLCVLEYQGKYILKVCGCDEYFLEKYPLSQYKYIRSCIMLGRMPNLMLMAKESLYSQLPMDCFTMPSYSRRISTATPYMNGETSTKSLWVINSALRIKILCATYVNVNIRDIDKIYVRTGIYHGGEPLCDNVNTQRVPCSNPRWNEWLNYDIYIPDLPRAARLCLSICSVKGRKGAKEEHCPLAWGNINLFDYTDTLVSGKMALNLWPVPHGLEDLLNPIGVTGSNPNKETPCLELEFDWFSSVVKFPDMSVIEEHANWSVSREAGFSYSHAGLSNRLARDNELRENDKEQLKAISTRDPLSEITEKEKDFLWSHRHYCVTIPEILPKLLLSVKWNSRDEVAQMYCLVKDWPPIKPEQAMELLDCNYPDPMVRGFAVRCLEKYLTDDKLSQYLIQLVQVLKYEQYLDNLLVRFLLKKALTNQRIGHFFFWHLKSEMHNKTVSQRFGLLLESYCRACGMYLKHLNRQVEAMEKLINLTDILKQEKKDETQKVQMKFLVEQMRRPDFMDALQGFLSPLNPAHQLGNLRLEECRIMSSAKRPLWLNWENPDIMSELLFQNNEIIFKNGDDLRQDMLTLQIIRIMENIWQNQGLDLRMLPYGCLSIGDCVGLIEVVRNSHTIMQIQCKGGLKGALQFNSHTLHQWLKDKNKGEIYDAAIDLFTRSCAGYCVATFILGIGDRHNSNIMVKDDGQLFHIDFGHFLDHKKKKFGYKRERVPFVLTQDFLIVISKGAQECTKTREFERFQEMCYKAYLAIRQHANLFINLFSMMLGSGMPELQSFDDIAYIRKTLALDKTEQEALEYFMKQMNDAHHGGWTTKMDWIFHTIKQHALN

With `CN(c1ccnc(CNc2nc(Nc3ccc4c(c3)CC(=O)N4)ncc2C(F)(F)F)n1)S(C)(=O)=O` [PF-00911705], the figures for the % of control in test [1], in test [2] and in test [3] were 0.4%, 1.2% and 1.7%, respectively.
Consider `CN1C(=O)c2sccc2N(C)c2nc(Nc3ccc(S(N)(=O)=O)cc3)ncc21`, for which the values for the % of control in test [4] and in test [5] were 0.6% and 2.6%, respectively. Moreover, in test [6], the pKd (as a rule, the Kd on a negative log10 scale, so that one unit is a factor of ten) was 7.85.
For the compound `CCOc1cn(-c2ccc(F)cc2C)nc1C(=O)Nc1ccc(Oc2ccnc3cc(OC)c(OC)cc23)c(F)c1`, the % of control in test [7], in test [8] and in test [9] was less than 10% in each case.
For the compound `C[C@H](c1ccnc(Nc2nc3ccc(-c4cc(N(C)C)ncn4)cc3[nH]2)c1)N1CCN(C(=O)CC(F)(F)F)CC1` [BAY-985], the % of control in test [10] was determined as 45%; in test [11], 40%.
As for `CC[C@@H]1C(=O)N(C)c2cnc(Nc3ccc(C(=O)NC4CCN(C)CC4)cc3OC)nc2N1C1CCCC1`, the % of control in test [12] is 91%; in [13], 98%.
